Data taken from paper PMC5400251, “Effect of quinoline based 1,2,3-triazole and its structural analogues on growth and virulence attributes of Candida albicans” (PLoS ONE, 2017).
Values after ≈ are worked out from the molar mass of the structure shown.

Key:
[1] = system: ergosterol biosynthesis; test: Ergosterol estimation assay
[2] = system: phospholipase secretion; test: Phospholipase assay (egg yolk agar, Pz value); assay type: cell-based, C. albicans D27 (FLC-susceptible)
Procedure: Phospholipase activity was performed using the method of Price et al. (1982) with minor modifications. The cells were incubated at 37°C for 18 h and then centrifuged at 3000 rpm for 5 min. The pellet obtained was washed with PBS twice to remove the residual culture medium. […] Volumes of 1 μL were placed at equidistant points on phospholipase agar media plates (1% peptone; 3% glucose; 5.73% NaCl; 0.055% CaCl2 with 10% (v/v) egg yolk emulsion) and incubated at 37°C for 4 days. The secretion of phospholipases was determined by the formation of opaque zones due to precipitation around the yeast colonies. The assay was conducted in duplicate. Pz values were calculated as follows: Pzvalue=diameterofcolony/diameterofcolony+diameterofzoneofprecipitaion

[3] = biological target: T1, plasma membrane H+ ATPase (Candida albicans, UniProt P28877); test: cell-based; set-up: species or system C. albicans D15.9 (FLC-resistant); settings: for inhibition at 100 µg/mL: read-out: Inhibition of H+ extrusion
T1 construct: endogenous in cells; host or cells: C. albicans ATCC 90028; clinical isolates C. albicans D27 (FLC-susceptible) and D15.9 (FLC-resistant); mid-log phase whole cells
T1 sequence (P28877 whole entry): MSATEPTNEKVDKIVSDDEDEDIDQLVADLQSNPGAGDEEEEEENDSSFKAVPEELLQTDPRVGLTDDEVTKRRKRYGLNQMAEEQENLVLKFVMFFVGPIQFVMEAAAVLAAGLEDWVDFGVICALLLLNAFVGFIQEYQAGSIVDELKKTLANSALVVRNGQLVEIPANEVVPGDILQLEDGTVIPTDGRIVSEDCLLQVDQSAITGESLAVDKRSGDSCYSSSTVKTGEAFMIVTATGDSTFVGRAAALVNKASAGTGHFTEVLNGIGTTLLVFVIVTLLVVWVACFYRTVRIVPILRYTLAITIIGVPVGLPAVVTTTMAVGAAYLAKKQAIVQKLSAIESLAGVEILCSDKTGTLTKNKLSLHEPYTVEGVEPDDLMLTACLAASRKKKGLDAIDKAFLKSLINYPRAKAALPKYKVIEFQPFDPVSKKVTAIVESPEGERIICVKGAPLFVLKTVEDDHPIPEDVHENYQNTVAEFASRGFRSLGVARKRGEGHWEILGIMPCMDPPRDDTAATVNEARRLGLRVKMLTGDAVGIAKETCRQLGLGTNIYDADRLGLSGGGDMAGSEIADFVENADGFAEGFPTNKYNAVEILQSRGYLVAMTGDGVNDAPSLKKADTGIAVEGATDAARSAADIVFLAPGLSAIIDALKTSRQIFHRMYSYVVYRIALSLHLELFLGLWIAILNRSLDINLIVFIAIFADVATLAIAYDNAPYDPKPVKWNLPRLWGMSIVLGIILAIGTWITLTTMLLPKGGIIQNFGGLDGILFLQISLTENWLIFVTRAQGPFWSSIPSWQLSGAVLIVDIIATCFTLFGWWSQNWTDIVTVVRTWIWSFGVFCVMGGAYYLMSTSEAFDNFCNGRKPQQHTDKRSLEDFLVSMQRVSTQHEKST
Procedure: The proton pumping activity of C. albicans was determined by monitoring acidification of external medium by measuring pH as describe earlier. In brief, the mid-log phase cells were harvested from SD medium by centrifugation at 3000 rpm for 15 min which is followed by three washings with phosphate buffer saline (PBS). A solution containing 0.1 M KCl and 0.1 mM CaCl2 in distilled water was prepared. Compounds 3a and 3b at the concentrations of 50 and 100 μg/mL were separately added in this solution. […] Initial pH was adjusted to 7.0 using 0.01 M HCl/NaOH. Approximately 0.2 g of cells were suspended in each set of solution. Suspension was kept in a double-jacketed glass container with constant stirring. Again, the pH of suspension was maintained as 7.0 for 1 min by using 0.01 N NaOH. The rate of H^+ extrusion was then monitored and calculated from the volume of 0.01 N NaOH consumed per min per mg weight of cells. Glucose has been reported as the stimulator of proton extrusion pump. Therefore above experiment was also repeated in the presence of 5 mM of glucose.

[4] = system: C. albicans D15.9 (FLC-resistant clinical isolate); test: Broth dilution IC50 / MIC determination; assay type: cell-based; settings: Candida albicans; for IC50: 24 h, read-out: Anti-Candida Activity (IC50± S.D.) C. albicans D15.9
Procedure: Broth dilution technique was employed to determine the IC50 values of all the synthesized 1,2,3 triazole derivatives (3a-c) against C. albicans ATCC 90028, C. glabrata ATCC 90030, C. tropicalis ATCC 750 and four clinical isolates of C. albicans namely D27, D31, D39 (FLC-sensitive) and D15.9 (FLC-resistant). The strains were maintained on yeast extract:peptone:dextrose ([…]) nutrient agar (2.5%) slants at 4°C. The test compounds were dissolved in DMSO with less than 4% concentration of it in the final test volume. Different concentrations (1000… 7.8 μg/mL) of test compounds in Sabouraud dextrose (SD) broth medium were dispensed into the wells, then inoculated with the test organism with approx. 2.5 × 10^3 cells/mL and incubated at 37°C for 24 h. After incubation period, the optical density was measured at 600 nm by using Thermo Scientific Multiskan Go plate reader. […] All the experiments were done in triplicate at separate times.

[5] = biological target: T1, plasma membrane H+ ATPase; test: Measurement of intracellular pH (pHi); assay type: cell-based, C. albicans D27 (FLC-susceptible); settings: 100 μg/mL; untreated 6.6
Procedure: (§1) In yeast cells, plasma membrane H^+-ATPase helps to maintain internal pH between 6.0 and 7.5. Intracellular pH (pHi) was measured as reported earlier by Manzoor et al.. Mid-log phase cells were harvested from SD medium and washed thrice with PBS. Subsequently, cells (0.1 g) were suspended in 5 mL solution of 0.1 M KCl, and 0.1 mM CaCl2 in distilled water. Compounds 3a and 3b were added to the suspension at a desired concentration of 100 μg/mL. […] Initial pH of the suspension was adjusted to 7.0 in each case and incubated for 30 min at 37°C with constant stirring. After incubation, the pH of suspension was again adjusted to 7.0 followed by the addition of nystatin (20 μM) and incubation at 37°C for 1 h. The change in pH of the suspension was monitored on a pH meter with constant stirring. The value of external pH at which nystatin permeabilization induced no further shift was taken as an estimate of pHi.

[6] = biological target: T1, plasma membrane H+ ATPase; test: Measurement of intracellular pH (pHi); assay type: cell-based, C. albicans ATCC 90028; settings: 100 μg/mL; untreated 6.3
Procedure: as §1

[7] = Hemolytic assay; assay type: cell-based; settings: human, human red blood cells (erythrocyte suspension), 37°C, read-out: Hemolysis of hRBCs
Procedure: Human blood from a healthy individual was collected in tubes containing EDTA as anti-coagulant. The erythrocytes were harvested by centrifugation for 10 min at 2000 rpm and 20°C, washed three times in PBS. To the pellet, PBS was added to yield a 10% (v/v) erythrocytes/PBS suspension. The 10% suspension was then diluted 1:10 in PBS. From each suspension, 100 μL was added in triplicate to 100 μL of a different dilution series of test compounds in the same buffer in micro centrifuge tubes. […] The tubes were incubated for 1 h at 37°C and then centrifuged for 10 min at 2000 rpm and 20°C. From the supernatant, 150 μL was transferred to a flat-bottomed microtiter plate (Tarson), and the absorbance was measured spectrophotometrically at 450 nm. The hemolysis percentage was calculated by following equation: %Hemolysis=[(A450oftestcompoundtreatedsample−A450ofbuffertreatedsample)÷(A450of1%TritonX−100treatedsample−A450ofbuffertreatedsample)]×100

[8] = 50 μg/mL in presence of glucose (5 mM)
[9] = 100 μg/mL in presence of glucose (5 mM)

c1ccc(Cn2cc(COc3cccc4cccnc34)nn2)cc1 [Compound 3a]
Mean decrease in total ergosterol content ([1]; above MIC/2, 16 h): 100% | Mean decrease in total ergosterol content ([1]; at MIC/4, 16 h): 48% | Decrease of phospholipase secretion ([2]; at MIC, 1 h exposure): 42% | Decrease of phospholipase secretion ([2]; at MIC/4, 1 h exposure): 25% | Range of relative H+ efflux rate [3, 8]: 28.30 ± 1.4 ×10^−6 mol min^−1 mg cells^−1 | Range of relative H+ efflux rate ([3]; 50 μg/mL, no glucose): 21.60 ± 1.0 ×10^−6 mol min^−1 mg cells^−1 | Range of relative H+ efflux rate [3, 9]: 20.00 ± 1.0 ×10^−6 mol min^−1 mg cells^−1 | Range of relative H+ efflux rate ([3]; 100 μg/mL, no glucose): 16.70 ± 0.8 ×10^−6 mol min^−1 mg cells^−1 | inhibition at 100 µg/mL [3]: 40% | MIC [4]: 25 µg/mL (≈ 79 µM) | IC50 [4]: 2.3 ± 0.05 µg/mL (≈ 7.27 µM) | Intracellular pH (pHi) [5]: 5.2 | Intracellular pH (pHi) [6]: 5.2 | hemolysis at 1 h, 500 μg/mL [7]: 4.76%

Clc1ccc(OCc2cn(Cc3ccccc3)nn2)c2ncccc12 [Compound 3b, 8-((1-Benzyl-1H-1,2,3-triazol-4-yl)methoxy)-5-chloroquinoline]
Mean decrease in total ergosterol content ([1]; above MIC/2, 16 h): 100% | Mean decrease in total ergosterol content ([1]; at MIC/4, 16 h): 33% | Decrease of phospholipase secretion ([2]; at MIC, 1 h exposure): 46% | Decrease of phospholipase secretion ([2]; at MIC/4, 1 h exposure): 34% | Range of relative H+ efflux rate [3, 8]: 25.00 ± 1.2 ×10^−6 mol min^−1 mg cells^−1 | Range of relative H+ efflux rate ([3]; 50 μg/mL, no glucose): 18.30 ± 0.9 ×10^−6 mol min^−1 mg cells^−1 | Range of relative H+ efflux rate [3, 9]: 21.00 ± 1.0 ×10^−6 mol min^−1 mg cells^−1 | Range of relative H+ efflux rate ([3]; 100 μg/mL, no glucose): 16.00 ± 0.8 ×10^−6 mol min^−1 mg cells^−1 | inhibition at 100 µg/mL [3]: 42% | MIC [4]: 250 µg/mL (≈ 713 µM) | IC50 [4]: 32.8 ± 1.25 µg/mL (≈ 93.5 µM) | Intracellular pH (pHi) [5]: 5.1 | Intracellular pH (pHi) [6]: 4.7 | hemolysis at 1 h, 500 μg/mL [7]: 26.8%
